Experimental data reported in publication PMC9719519, “Non-classical ferroptosis inhibition by a small molecule targeting PHB2” (Nature Communications, 2022).

Columns and labels:
Experiment in all cases: biochemical
Parameters in all cases: Eurofins recombinant human kinase profiling, remaining kinase activity as % of control, 10 uM ATP
Details in all cases: ATP 10 uM; read-out: %Ctrl@10 μM
[1] = target: T1, AMPKα1(h) (Homo sapiens, UniProt Q13131)
T1 construct: gene PRKAA1
Method in brief: (§1)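 Activity measured in a commercial panel of 401 recombinant human protein kinases run as a kinase profiling service.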

[2] = target: NEK6(h) (Homo sapiens, UniProt Q9HC98)
Method in brief: as §1

[3] = target: SIK2(h) (Homo sapiens, UniProt Q9H0K1)
Method in brief: as §1

[4] = target: T2, PAR-1Bα(h) (Homo sapiens, UniProt Q7KZI7)
T2 construct: gene MARK2
Method in brief: as §1

[5] = target: T3, SAPK3(h) (Homo sapiens, UniProt P53778)
T3 construct: gene MAPK12
Method in brief: as §1

[6] = target: T4, PKAcβ(h) (Homo sapiens, UniProt P22694)
T4 construct: gene PRKACB
Method in brief: as §1

[7] = target: T5, Aurora-C(h) (Homo sapiens, UniProt Q9UQB9)
T5 construct: gene AURKC
Method in brief: as §1

[8] = target: T6, DCAMKL3(h) (Homo sapiens, UniProt Q9C098)
T6 construct: gene DCLK3
Method in brief: as §1

[9] = target: T7, PKCθ(h) (Homo sapiens, UniProt Q04759)
T7 construct: gene PRKCQ
Method in brief: as §1

[10] = target: NEK11(h) (Homo sapiens, UniProt Q8NG66)
Method in brief: as §1

[11] = target: EphA4(h) (Homo sapiens, UniProt P54764)
Method in brief: as §1

[12] = target: T8, MEK2(h) (Homo sapiens, UniProt P36507)
T8 construct: gene MAP2K2
Method in brief: as §1

[13] = target: SGK2(h) (Homo sapiens, UniProt Q9HBY8)
Method in brief: as §1

[14] = target: SIK3(h) (Homo sapiens, UniProt Q9Y2K2)
Method in brief: as §1

[15] = target: ULK1(h) (Homo sapiens, UniProt O75385)
Method in brief: as §1

[16] = target: STK33(h) (Homo sapiens, UniProt Q9BYT3)
Method in brief: as §1

[17] = target: STK16(h) (Homo sapiens, UniProt O75716)
Method in brief: as §1

[18] = target: T9, IGF-1R(h) (Homo sapiens, UniProt P08069)
T9 construct: gene IGF1R
Method in brief: as §1

[19] = target: T10, CRIK(h) (Homo sapiens, UniProt O14578)
T10 construct: gene CIT
Method in brief: as §1

[20] = target: T11, MLCK(h) (Homo sapiens, UniProt Q15746)
T11 construct: gene MYLK
Method in brief: as §1

[21] = target: DYRK2(h) (Homo sapiens, UniProt Q92630)
Method in brief: as §1

[22] = target: T12, A-Raf(h) (Homo sapiens, UniProt P10398)
T12 construct: gene ARAF
Method in brief: as §1

[23] = target: Flt3(D835Y)(h) (Homo sapiens, UniProt P36888, D835Y)
Method in brief: as §1

T6 sequence (Q9C098 whole entry): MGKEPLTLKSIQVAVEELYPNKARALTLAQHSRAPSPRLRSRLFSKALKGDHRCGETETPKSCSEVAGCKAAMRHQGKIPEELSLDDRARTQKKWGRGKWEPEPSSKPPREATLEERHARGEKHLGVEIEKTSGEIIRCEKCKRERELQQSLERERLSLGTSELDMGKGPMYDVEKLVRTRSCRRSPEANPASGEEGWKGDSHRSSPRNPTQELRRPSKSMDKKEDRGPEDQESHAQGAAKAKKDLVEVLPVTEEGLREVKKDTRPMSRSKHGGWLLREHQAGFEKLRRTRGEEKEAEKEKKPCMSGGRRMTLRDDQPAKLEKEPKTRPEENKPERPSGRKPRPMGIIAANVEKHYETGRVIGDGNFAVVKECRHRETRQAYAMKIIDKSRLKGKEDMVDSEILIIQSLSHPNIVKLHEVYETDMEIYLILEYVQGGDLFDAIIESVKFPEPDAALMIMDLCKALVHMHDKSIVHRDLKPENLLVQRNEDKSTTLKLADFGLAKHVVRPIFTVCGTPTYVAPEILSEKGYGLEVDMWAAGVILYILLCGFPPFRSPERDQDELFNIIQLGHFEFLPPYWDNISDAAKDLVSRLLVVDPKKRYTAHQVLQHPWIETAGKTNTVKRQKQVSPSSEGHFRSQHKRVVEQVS
SGK2(h), sequence (Q9HBY8 whole entry): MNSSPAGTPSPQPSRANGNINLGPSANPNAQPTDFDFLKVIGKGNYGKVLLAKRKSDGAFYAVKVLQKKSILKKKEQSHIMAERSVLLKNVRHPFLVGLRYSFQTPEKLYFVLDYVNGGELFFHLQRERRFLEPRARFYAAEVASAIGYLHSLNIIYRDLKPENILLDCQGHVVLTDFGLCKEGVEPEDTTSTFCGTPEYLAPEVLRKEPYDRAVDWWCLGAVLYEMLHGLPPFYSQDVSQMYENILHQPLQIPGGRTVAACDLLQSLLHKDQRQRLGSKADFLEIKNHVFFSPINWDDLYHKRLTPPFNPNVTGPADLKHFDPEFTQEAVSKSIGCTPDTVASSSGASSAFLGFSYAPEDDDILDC
T7 sequence (Q04759 whole entry): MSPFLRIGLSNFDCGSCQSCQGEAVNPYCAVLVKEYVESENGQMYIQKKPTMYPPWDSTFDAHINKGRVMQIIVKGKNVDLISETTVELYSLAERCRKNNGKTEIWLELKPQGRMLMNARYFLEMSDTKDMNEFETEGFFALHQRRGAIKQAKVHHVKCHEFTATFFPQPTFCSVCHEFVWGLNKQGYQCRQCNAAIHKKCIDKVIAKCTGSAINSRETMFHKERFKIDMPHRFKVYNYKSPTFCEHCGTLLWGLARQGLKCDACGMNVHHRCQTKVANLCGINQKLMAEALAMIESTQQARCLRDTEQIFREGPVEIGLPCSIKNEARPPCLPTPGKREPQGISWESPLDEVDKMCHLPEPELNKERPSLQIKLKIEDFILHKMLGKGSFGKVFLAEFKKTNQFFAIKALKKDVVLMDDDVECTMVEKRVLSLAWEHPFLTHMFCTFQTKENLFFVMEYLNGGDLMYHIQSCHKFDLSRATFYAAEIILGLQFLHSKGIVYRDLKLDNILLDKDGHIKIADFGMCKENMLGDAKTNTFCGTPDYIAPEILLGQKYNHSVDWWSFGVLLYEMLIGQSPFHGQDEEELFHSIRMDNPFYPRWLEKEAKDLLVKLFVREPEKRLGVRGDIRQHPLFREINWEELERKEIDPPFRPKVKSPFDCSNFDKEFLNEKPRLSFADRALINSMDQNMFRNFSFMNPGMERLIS
T3 sequence (P53778 whole entry): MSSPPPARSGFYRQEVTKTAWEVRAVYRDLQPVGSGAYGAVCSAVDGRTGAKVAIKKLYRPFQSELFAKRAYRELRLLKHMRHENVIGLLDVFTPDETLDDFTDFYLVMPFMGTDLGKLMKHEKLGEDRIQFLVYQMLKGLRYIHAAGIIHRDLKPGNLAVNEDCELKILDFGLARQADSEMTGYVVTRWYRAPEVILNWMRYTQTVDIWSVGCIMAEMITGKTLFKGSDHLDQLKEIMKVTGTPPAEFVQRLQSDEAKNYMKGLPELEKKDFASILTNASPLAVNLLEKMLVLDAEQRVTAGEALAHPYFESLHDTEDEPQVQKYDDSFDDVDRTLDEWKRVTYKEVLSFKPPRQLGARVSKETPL
T5 sequence (Q9UQB9 whole entry): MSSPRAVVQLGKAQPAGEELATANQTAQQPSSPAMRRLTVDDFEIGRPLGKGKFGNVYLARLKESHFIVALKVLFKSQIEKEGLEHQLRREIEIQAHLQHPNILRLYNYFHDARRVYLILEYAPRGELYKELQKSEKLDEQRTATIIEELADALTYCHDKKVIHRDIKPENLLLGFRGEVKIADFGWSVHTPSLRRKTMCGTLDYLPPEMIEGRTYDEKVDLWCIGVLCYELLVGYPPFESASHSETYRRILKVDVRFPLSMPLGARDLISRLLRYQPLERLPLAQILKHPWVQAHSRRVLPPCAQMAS
STK16(h), sequence (O75716 whole entry): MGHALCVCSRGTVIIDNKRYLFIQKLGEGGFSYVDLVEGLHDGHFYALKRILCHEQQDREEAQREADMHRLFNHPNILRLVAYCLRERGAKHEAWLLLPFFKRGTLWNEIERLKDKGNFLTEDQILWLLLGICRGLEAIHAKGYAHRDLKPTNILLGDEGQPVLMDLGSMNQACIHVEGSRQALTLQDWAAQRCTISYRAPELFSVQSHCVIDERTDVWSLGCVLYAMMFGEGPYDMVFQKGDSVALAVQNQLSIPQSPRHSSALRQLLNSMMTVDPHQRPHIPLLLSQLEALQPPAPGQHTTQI
T9 sequence (P08069 whole entry): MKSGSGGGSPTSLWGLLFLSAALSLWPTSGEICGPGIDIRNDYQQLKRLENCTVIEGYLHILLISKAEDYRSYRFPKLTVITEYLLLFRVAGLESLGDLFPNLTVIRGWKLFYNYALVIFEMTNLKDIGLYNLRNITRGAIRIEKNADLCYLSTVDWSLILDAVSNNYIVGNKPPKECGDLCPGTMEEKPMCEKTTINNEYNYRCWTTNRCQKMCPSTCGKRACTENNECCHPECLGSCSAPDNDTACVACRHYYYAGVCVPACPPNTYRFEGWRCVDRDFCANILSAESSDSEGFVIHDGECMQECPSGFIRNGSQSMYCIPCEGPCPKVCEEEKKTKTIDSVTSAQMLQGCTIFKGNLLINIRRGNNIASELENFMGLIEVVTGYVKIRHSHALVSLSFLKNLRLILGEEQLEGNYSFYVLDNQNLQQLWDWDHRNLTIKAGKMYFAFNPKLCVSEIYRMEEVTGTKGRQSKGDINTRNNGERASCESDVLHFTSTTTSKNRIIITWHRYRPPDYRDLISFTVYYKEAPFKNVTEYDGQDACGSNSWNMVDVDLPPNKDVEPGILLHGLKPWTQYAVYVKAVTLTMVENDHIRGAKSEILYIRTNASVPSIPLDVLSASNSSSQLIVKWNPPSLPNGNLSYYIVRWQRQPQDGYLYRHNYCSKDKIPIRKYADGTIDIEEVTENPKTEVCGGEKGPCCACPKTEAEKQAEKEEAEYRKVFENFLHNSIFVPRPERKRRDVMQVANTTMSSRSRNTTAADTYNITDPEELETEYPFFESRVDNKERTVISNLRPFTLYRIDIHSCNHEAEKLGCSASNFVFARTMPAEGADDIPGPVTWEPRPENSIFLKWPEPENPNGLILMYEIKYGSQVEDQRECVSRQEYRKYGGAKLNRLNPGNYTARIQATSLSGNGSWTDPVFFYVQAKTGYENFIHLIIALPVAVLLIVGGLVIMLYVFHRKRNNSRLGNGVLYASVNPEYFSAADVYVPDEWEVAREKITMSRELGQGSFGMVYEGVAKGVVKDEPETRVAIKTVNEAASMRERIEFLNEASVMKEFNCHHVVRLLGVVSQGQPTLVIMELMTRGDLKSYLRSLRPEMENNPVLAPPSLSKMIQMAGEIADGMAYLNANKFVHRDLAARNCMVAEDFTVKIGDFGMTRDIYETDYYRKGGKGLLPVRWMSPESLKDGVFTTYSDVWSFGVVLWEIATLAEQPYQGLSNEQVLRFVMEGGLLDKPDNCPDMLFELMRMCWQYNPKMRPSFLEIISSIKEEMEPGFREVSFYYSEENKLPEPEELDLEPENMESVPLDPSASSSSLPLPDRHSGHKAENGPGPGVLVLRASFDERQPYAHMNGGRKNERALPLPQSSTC
NEK6(h), sequence (Q9HC98 whole entry): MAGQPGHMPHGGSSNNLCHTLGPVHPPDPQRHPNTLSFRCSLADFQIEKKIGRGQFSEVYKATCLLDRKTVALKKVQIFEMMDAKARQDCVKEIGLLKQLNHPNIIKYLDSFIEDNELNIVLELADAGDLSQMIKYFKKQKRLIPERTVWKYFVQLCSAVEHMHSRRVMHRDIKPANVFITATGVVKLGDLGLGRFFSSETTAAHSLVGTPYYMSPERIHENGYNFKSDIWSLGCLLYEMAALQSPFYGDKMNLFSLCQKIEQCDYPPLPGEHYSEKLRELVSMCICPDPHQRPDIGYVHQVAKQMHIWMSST
T12 sequence (P10398 whole entry): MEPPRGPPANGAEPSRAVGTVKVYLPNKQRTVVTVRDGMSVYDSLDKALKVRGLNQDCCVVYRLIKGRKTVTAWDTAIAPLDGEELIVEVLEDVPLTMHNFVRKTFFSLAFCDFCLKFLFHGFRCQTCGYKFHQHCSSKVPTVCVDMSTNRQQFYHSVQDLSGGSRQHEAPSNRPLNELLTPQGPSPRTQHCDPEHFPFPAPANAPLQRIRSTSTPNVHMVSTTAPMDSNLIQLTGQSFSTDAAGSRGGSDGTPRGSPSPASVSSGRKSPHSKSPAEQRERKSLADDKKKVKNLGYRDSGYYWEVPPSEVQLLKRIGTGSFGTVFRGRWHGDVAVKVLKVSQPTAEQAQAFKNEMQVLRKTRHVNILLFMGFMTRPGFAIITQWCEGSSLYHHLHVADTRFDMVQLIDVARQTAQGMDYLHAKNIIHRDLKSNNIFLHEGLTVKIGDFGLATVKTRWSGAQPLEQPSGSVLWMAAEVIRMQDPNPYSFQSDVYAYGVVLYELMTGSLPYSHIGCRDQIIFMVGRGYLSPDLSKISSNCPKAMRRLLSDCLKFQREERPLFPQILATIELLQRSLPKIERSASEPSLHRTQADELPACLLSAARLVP

C1=C(c2nc(-c3cnn(C4CCNCC4)c3)cn3cc(-c4ccccc4)nc23)CCOC1 [YL-939]
remaining activity at 10 µM [1]: 90% | remaining activity at 10 µM [2]: 97% | remaining activity at 10 µM [3]: 94% | remaining activity at 10 µM [4]: 101% | remaining activity at 10 µM [5]: 75% | remaining activity at 10 µM [6]: 94% | remaining activity at 10 µM [7]: 101% | remaining activity at 10 µM [8]: 66% | remaining activity at 10 µM [9]: 93% | remaining activity at 10 µM [10]: 86% | remaining activity at 10 µM [11]: 89% | remaining activity at 10 µM [12]: 89% | remaining activity at 10 µM [13]: 96% | remaining activity at 10 µM [14]: 84% | remaining activity at 10 µM [15]: 65% | remaining activity at 10 µM [16]: 105% | remaining activity at 10 µM [17]: 100% | remaining activity at 10 µM [18]: 82% | remaining activity at 10 µM [19]: 101% | remaining activity at 10 µM [20]: 60% | remaining activity at 10 µM [21]: 93% | remaining activity at 10 µM [22]: 83% | remaining activity at 10 µM [23]: 95%
